Data reported in patent publication US20250179078A1, “INHIBITORS OF NLRP3” (PTC THERAPEUTICS, INC., priority 2022, published 2025).

Molecular target: T1, NLRP3 (Homo sapiens, UniProt Q96P20)
T1 construct: host or cells: THP-1 cells differentiated with PMA
Test: IL-1β Secretion Assay (NLRP3-dependent IL1β secretion in THP1 cells)
Type: cell-based
Settings: PMA-differentiated THP-1 cells; compounds incubated 20 h; 2.5 μM Nigericin 3 h; HTRF IL-1β readout; read-out: IC50 IL-1β Inhibition
How it was run: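 THP-1 cells differentiated with 100 ng/mL PMA for 24 h, then given compound (7-point 3-fold series, 1:200 from DMSO) for 20 h in RPMI+5% FBS. NLRP3 activated with 2.5 μM nigericin for 3 h; secreted IL-1β measured by HTRF; IC50 from logistic fit of % inhibition.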

T1 sequence (Q96P20 whole entry): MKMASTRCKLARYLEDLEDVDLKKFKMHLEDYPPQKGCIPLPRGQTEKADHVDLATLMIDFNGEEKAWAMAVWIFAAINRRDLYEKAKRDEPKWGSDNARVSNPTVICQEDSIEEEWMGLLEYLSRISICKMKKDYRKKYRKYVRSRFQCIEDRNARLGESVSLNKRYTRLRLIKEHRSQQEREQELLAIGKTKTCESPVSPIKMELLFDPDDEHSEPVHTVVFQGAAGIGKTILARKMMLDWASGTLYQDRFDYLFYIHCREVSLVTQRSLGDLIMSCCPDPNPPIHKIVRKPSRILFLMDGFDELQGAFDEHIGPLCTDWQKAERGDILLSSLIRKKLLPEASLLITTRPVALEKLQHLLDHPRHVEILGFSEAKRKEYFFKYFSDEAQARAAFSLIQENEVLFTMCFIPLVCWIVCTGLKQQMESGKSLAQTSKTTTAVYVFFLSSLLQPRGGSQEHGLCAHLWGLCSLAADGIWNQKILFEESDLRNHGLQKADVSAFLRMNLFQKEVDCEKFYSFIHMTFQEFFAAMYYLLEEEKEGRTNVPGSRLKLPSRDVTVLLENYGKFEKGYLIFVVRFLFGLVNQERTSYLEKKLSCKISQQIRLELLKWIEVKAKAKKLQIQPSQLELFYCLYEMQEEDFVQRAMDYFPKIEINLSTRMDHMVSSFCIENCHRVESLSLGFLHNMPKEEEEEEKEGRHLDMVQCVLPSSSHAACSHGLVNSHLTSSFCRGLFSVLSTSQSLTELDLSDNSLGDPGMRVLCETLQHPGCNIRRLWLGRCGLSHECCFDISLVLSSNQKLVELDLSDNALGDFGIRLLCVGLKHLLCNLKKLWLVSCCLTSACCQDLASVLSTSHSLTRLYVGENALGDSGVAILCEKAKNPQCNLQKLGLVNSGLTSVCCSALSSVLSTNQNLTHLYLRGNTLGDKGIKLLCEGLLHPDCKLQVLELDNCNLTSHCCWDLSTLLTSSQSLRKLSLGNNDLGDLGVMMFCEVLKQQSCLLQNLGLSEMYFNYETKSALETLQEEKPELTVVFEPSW

Row | IC50 | Compound
1 | 1 to 10 nM | COc1ccc(-c2nnc(N[C@@H]3CCCN(C)C3)n3cc(C)cc23)c(OC(F)F)c1 [Compound 12, 1-[2-(difluoromethoxy)-4-methoxyphenyl]-7-methyl-N-[(3R)-1-methylpiperidin-3-yl]pyrrolo[1,2-d][1,2,4]triazin-4-amine]
2 | 1 to 10 nM | COc1ccc(-c2nnc(N[C@@H]3C[C@@H](F)CN(C)C3)n3cccc23)c(OC(F)(F)F)c1 [Compound 60, N-[(3R,5R)-5-fluoro-1-methylpiperidin-3-yl]-1-[4-methoxy-2-(trifluoromethoxy)phenyl]pyrrolo[1,2-d][1,2,4]triazin-4-amine]
3 | 1 to 10 nM | COc1ccc(-c2nnc(N[C@@H]3CCOC[C@H]3O)n3cncc23)c(OC(F)F)c1 [Compound 268, (3S,4R)-4-({1-[2-(difluoromethoxy)-4-methoxyphenyl]imidazo[1,5-d][1,2,4]triazin-4-yl}amino)oxan-3-ol]
4 | < 1 nM | CCN1CCC[C@@H](Nc2nnc(-c3ccc(OC)cc3OC(F)F)c3c(F)ccn23)C1 [Compound 56, 1-[2-(difluoromethoxy)-4-methoxyphenyl]-N-[(3R)-1-ethylpiperidin-3-yl]-8-fluoropyrrolo[1,2-d][1,2,4]triazin-4-amine]
5 | 1 to 10 nM | O[C@@H]1CCCC[C@H]1Nc1nnc(-c2ccc(OC(F)F)cc2OC(F)(F)F)c2cccn12 [Compound 168, (1R,2R)-2-({1-[4-(difluoromethoxy)-2-(trifluoromethoxy)phenyl]pyrrolo[1,2-d][1,2,4]triazin-4-yl}amino)cyclohexan-1-ol]
6 | < 1 nM | OCCN1CCC[C@@H](Nc2nnc(-c3ccc(C(F)(F)F)cc3OC(F)(F)F)c3cncn23)C1 [Compound 239, 2-[(3R)-3-({1-[2-(trifluoromethoxy)-4-(trifluoromethyl)phenyl]imidazo[1,5-d][1,2,4]triazin-4-yl}amino)piperidin-1-yl]ethan-1-ol]
7 | 1 to 10 nM | Cc1cc2c(-c3ccc(C(F)(F)F)cc3C(F)(F)F)nnc(N[C@@H]3CCCC[C@H]3O)n2c1 [Compound 160, (1R,2R)-2-({1-[2,4-bis(trifluoromethyl)phenyl]-7-methylpyrrolo[1,2-d][1,2,4]triazin-4-yl}amino)cyclohexan-1-ol]
8 | 10 to 100 nM | C[C@H](O)CNc1nnc(-c2ccc(C(F)(F)F)cc2OC(F)F)c2c(F)ccn12 [Compound 16, (2S)-1-({1-[2-(difluoromethoxy)-4-(trifluoromethyl)phenyl]-8-fluoropyrrolo[1,2-d][1,2,4]triazin-4-yl}amino)propan-2-ol]
9 | < 1 nM | OCCN1CCC[C@@H](Nc2nnc(-c3ccc(C(F)(F)F)cc3CC(F)(F)F)c3cncn23)C1 [Compound 301]
10 | 1 to 10 nM | CCN1CCC[C@@H](Nc2nnc(-c3ccc(OC)cc3OC3CC3)c3cccn23)C1 [Compound 182, 1-[2-(cyclopropyloxy)-4-methoxyphenyl]-N-[(3R)-1-ethylpiperidin-3-yl]pyrrolo[1,2-d][1,2,4]triazin-4-amine]
11 | < 1 nM | CC(Nc1nnc(-c2ccc(OC(F)F)cc2OC(F)(F)F)c2cncn12)c1cccc(O)c1 (stereo not drawn) [Compound 259]
12 | < 1 nM | COc1ccc(-c2nnc(N[C@@H]3CCCN(CCO)C3)n3cccc23)c(OC(F)(F)F)c1 [Compound 61, 2-[(3R)-3-({1-[4-methoxy-2-(trifluoromethoxy)phenyl]pyrrolo[1,2-d][1,2,4]triazin-4-yl}amino)piperidin-1-yl]ethan-1-ol]
13 | 1 to 10 nM | C[C@]1(O)C[C@@H](Nc2nnc(-c3ccc(OC(F)F)cc3OC(F)(F)F)c3cccn23)C1 [Compound 88, (1s,3s)-3-({1-[4-(difluoromethoxy)-2-(trifluoromethoxy)phenyl]pyrrolo[1,2-d][1,2,4]triazin-4-yl}amino)-1-methylcyclobutan-1-ol]
14 | 10 to 100 nM | CC(C)(O)C1CC(Nc2nnc(-c3ccc(C(F)(F)F)cc3CC(F)(F)F)c3cncn23)C1 (stereo not drawn) [Compound 339, 2-[3-({1-[2-(2,2,2-trifluoroethyl)-4-(trifluoromethyl)phenyl]imidazo[1,5-d][1,2,4]triazin-4-yl}amino)cyclobutyl]propan-2-ol]
15 | 1 to 10 nM | O[C@@H]1CCCC[C@H]1Nc1nnc(-c2ccc(Cl)cc2OC(F)(F)F)c2cncn12 [Compound 300, (1R,2R)-2-({1-[4-chloro-2-(trifluoromethoxy)phenyl]imidazo[1,5-d][1,2,4]triazin-4-yl}amino)cyclohexan-1-ol]
16 | 1 to 10 nM | COc1ccc(-c2nnc(N[C@H]3C[C@@](C)(O)C3)n3ccc(F)c23)c(C(F)(F)F)c1 [Compound 130, (1s,3s)-3-({8-fluoro-1-[4-methoxy-2-(trifluoromethyl)phenyl]pyrrolo[1,2-d][1,2,4]triazin-4-yl}amino)-1-methylcyclobutan-1-ol]
17 | 1 to 10 nM | CN1C[C@H](F)C[C@@H](Nc2nnc(-c3ccc(Cl)cc3OC(F)F)c3cncn23)C1 [Compound 193, 1-[4-chloro-2-(difluoromethoxy)phenyl]-N-[(3R,5R)-5-fluoro-1-methylpiperidin-3-yl]imidazo[1,5-d][1,2,4]triazin-4-amine]

Row | IC50 | Compound
18 | < 1 nM | COc1ccc(-c2nnc(NC(C)c3cccc(O)c3)n3cncc23)c(CC(F)(F)F)c1 (stereo not drawn) [Compound 303, 3-[1-({1-[4-methoxy-2-(2,2,2-trifluoroethyl)phenyl]imidazo[1,5-d][1,2,4]triazin-4-yl}amino)ethyl]phenol]
19 | 1 to 10 nM | COc1ccc(-c2nnc(N[C@@H]3CCCN(CCO)C3)n3ccc(F)c23)c(C(F)(F)F)c1 [Compound 18, 2-[(3R)-3-({8-fluoro-1-[4-methoxy-2-(trifluoromethyl)phenyl]pyrrolo[1,2-d][1,2,4]triazin-4-yl}amino)piperidin-1-yl]ethan-1-ol]
20 | 10 to 100 nM | COc1ccc(-c2nnc(NC[C@@H]3CCCO3)n3cccc23)c(OC(F)(F)F)c1 [Compound 76, 1-[4-methoxy-2-(trifluoromethoxy)phenyl]-N-{[(2S)-oxolan-2-yl]methyl}pyrrolo[1,2-d][1,2,4]triazin-4-amine]
21 | 1 to 10 nM | CN1C[C@H](F)C[C@@H](Nc2nnc(-c3ccc(OC(F)F)cc3OC(F)(F)F)c3cccn23)C1 [Compound 87, 1-[4-(difluoromethoxy)-2-(trifluoromethoxy)phenyl]-N-[(3R,5R)-5-fluoro-1-methylpiperidin-3-yl]pyrrolo[1,2-d][1,2,4]triazin-4-amine]
22 | 1 to 10 nM | Cc1cc2c(-c3ccc(C(F)(F)F)cc3CC(F)(F)F)nnc(N[C@H]3C[C@@](C)(O)C3)n2n1 [Compound 388, (1s,3s)-1-methyl-3-({2-methyl-4-[2-(2,2,2-trifluoroethyl)-4-(trifluoromethyl)phenyl]pyrazolo[1,5-d][1,2,4]triazin-7-yl}amino)cyclobutan-1-ol]
23 | < 1 nM | CCN1CC[C@@H](O)[C@@H](Nc2nnc(-c3ccc(OC)cc3OC(F)F)c3cccn23)C1 [Compound 175, (3S,4R)-3-({1-[2-(difluoromethoxy)-4-methoxyphenyl]pyrrolo[1,2-d][1,2,4]triazin-4-yl}amino)-1-ethylpiperidin-4-ol]
24 | 1 to 10 nM | CC(Nc1nnc(-c2ccc(C(F)(F)F)cc2CC(F)(F)F)c2cccn12)c1cccc(O)c1 (stereo not drawn) [Compound 96, 3-[1-({1-[2-(2,2,2-trifluoroethyl)-4-(trifluoromethyl)phenyl]pyrrolo[1,2-d][1,2,4]triazin-4-yl}amino)ethyl]phenol]
25 | 10 to 100 nM | FC(F)(F)c1ccc(-c2nnc(N[C@@H]3CCCOC3)n3cncc23)c(C(F)(F)F)c1 [Compound 254, 1-[2,4-bis(trifluoromethyl)phenyl]-N-[(3R)-oxan-3-yl]imidazo[1,5-d][1,2,4]triazin-4-amine]
26 | < 1 nM | OCCN1CCC[C@@H](Nc2nnc(-c3ccc(Br)cc3OC(F)F)c3cncn23)C1 [Compound 198, 2-[(3R)-3-({1-[4-bromo-2-(difluoromethoxy)phenyl]imidazo[1,5-d][1,2,4]triazin-4-yl}amino)piperidin-1-yl]ethan-1-ol]
27 | 1 to 10 nM | COc1ccc(-c2nnc(N[C@H]3C[C@@](C)(O)C3)n3cncc23)c(CC(F)(F)F)c1 [Compound 236, (1s,3s)-3-({1-[4-methoxy-2-(2,2,2-trifluoroethyl)phenyl]imidazo[1,5-d][1,2,4]triazin-4-yl}amino)-1-methylcyclobutan-1-ol]
28 | 1 to 10 nM | Cc1ccc(-c2nnc(NC(C)c3cccc(O)c3)n3cncc23)c(CC(F)(F)F)c1 (stereo not drawn) [Compound 297, 3-[1-({1-[4-methyl-2-(2,2,2-trifluoroethyl)phenyl]imidazo[1,5-d][1,2,4]triazin-4-yl}amino)ethyl]phenol]
29 | 10 to 100 nM | COc1ccc(-c2nnc(N[C@@H]3CCCC[C@H]3O)n3nc(C)cc23)c(OC(F)(F)F)c1 [Compound 392, (1R,2R)-2-({4-[4-methoxy-2-(trifluoromethoxy)phenyl]-2-methylpyrazolo[1,5-d][1,2,4]triazin-7-yl}amino)cyclohexan-1-ol]
30 | < 1 nM | CN1CCC[C@@H](Nc2nnc(-c3ccc(C(F)(F)F)cc3CC(F)(F)F)c3cccn23)C1 [Compound 40, N-[(3R)-1-methylpiperidin-3-yl]-1-[2-(2,2,2-trifluoroethyl)-4-(trifluoromethyl)phenyl]pyrrolo[1,2-d][1,2,4]triazin-4-amine]
31 | 10 to 100 nM | FC(F)Oc1ccc(-c2nnc(Nc3cc[nH]n3)n3cncc23)c(OC(F)(F)F)c1 [Compound 296, 1-[4-(difluoromethoxy)-2-(trifluoromethoxy)phenyl]-N-(1H-pyrazol-3-yl)imidazo[1,5-d][1,2,4]triazin-4-amine]
32 | 1 to 10 nM | O[C@H]1COCC[C@H]1Nc1nnc(-c2ccc(C(F)(F)F)cc2CC(F)(F)F)c2cccn12 [Compound 114, (3R,4R)-4-({1-[2-(2,2,2-trifluoroethyl)-4-(trifluoromethyl)phenyl]pyrrolo[1,2-d][1,2,4]triazin-4-yl}amino)oxan-3-ol]
33 | 1 to 10 nM | OCCN1CCC[C@@H](Nc2nnc(-c3ccc(C(F)(F)F)cc3OC(F)F)c3c(F)ccn23)C1 [Compound 15]
